Results: paper PMC7380166, “How to Study the Metabolism of New Psychoactive Substances for the Purpose of Toxicological Screenings—A Follow-Up Study Comparing Pooled Human Liver S9, HepaRG Cells, and Zebrafish Larvae” (Frontiers in Chemistry, 2020)

Legend:
[1] = molecular target: T1, hCES1b (Homo sapiens, UniProt P23141); assay: Esterases activity screening, hCES1b; assay type: in vitro ADME; design: key: +, detected; –, not detected; settings: 100 μM 4F-MDMB-BINACA, 0.2 mg protein/ml, duplicate
T1 construct: purchased Corning
T1 sequence (P23141 18-567): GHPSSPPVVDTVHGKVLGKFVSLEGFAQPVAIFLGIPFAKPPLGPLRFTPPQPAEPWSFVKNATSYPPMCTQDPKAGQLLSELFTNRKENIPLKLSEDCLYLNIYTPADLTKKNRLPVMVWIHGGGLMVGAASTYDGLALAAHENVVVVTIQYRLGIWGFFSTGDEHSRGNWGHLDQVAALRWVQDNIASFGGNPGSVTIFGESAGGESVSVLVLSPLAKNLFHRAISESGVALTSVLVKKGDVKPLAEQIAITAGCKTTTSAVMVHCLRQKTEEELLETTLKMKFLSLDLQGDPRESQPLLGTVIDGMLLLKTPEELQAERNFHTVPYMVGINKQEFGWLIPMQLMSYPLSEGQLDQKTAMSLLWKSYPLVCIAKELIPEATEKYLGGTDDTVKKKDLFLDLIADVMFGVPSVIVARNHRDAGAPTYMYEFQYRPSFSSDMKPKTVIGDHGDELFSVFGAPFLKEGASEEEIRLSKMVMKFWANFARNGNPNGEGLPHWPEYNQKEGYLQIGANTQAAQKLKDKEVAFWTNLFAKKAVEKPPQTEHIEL
Description: Experiments were performed in accordance with a previous study (Meyer et al., [2015]) with minor modifications. The final volume per reaction tube was 100 μl with a final 4F-MDMB-BINACA concentration of 100 μM and enzyme concentration of 0.2 mg protein/ml for hCES1b, hCES1c, and hCES2. Incubations with pHLM and pHLS9 (0.2 mg protein/ml, each) were performed in a similar manner. Additionally, incubations with human plasma (50 μl pooled human plasma, 40 μl phosphate buffer, and 10 μl substrate) were performed. The reactions were started by adding the enzyme-containing preparation and terminated with an equal volume of ice-cold acetonitrile containing diazepam-d5 (100 μM) as an internal standard. Only plasma incubations were terminated by addition of a three-fold volume of ice-cold acetonitrile. The reaction mixtures were centrifuged at 18,407 × g for 15 min, and then supernatants were transferred to autosampler vials, and 5 μl was injected onto the LC-HRMS/MS system. Negative control incubations without enzyme were prepared to identify non-metabolically formed compounds. All incubations were done in duplicate.

[2] = [2019], cited from earlier work

O=C(O)c1nn(CCCCF)c2ccccc12 [MB1]
Detection of metabolite in incubation with hCES1b [1]: –

COC(=O)C(NC(=O)c1nn(CCCCF)c2ccccc12)C(C)(C)C (stereo not drawn) [4F-MDMB-BINACA, methyl 2-[1-(4-fluorobutyl)-1H-indazole-3-carbonyl]amino-3,3-dimethylbutanoate]
Number of metabolites identified in human urine samples ([2]; 17 human urine samples, conjugate cleavage, ref Haschimi et al.): 13 | Number of metabolites identified in blood and urine samples ([2]; four blood and four urine samples, ref Krotulski et al.): nine
